# Experimental data published in US10125129B2 (priority 2016, dated 2018).
# “Also recorded” adds a separate entry of the source. Like-named read-outs stand apart in the source and are kept apart here.
# What was measured:
# [1] = molecular target: T1, μ opioid receptor (MOR) (Homo sapiens, UniProt P35372); test: cell-based; assay type: cell-based
# T1 construct: expressed in transfected cells
# [2] = molecular target: T2, κ opioid receptor (KOR) (Homo sapiens, UniProt P41145); test: cell-based; assay type: cell-based
# T2 construct: expressed in transfected cells
# [3] = test system: mice; test: Accelerating rotarod performance assay; conditions: 10 mg/kg i.p.; compared to kurkinorin and vehicle
# [4] = test system: mice; test: Hot water tail-flick tolerance evaluation, daily dosing; assay type: in vivo; conditions: for antinociceptive effects over days of daily administration (tolerance): 7 mg/kg i.p. daily, days 1, 3, 5, 6, mice; for antinociceptive effects on day 6 challenge after daily vehicle: daily vehicle treated mice challenged on day 6
# [5] = test system: Sprague Dawley rats; test: Conditioned place preference assay; conditions: i.p.
# [6] = test system: mice; test: Hot water tail-flick cumulative dose-response (s.c.); assay type: in vivo; conditions: Mus musculus, sc, 0.5 h, cumulative s.c. doses 1-30 mg/kg, latency 30 min after each dose
# [7] = test system: mice; test: Centrally mediated antinociceptive effects (tail-flick), i.p. doses, 10 s cutoff; assay type: in vivo
# T2 sequence (P41145 whole entry): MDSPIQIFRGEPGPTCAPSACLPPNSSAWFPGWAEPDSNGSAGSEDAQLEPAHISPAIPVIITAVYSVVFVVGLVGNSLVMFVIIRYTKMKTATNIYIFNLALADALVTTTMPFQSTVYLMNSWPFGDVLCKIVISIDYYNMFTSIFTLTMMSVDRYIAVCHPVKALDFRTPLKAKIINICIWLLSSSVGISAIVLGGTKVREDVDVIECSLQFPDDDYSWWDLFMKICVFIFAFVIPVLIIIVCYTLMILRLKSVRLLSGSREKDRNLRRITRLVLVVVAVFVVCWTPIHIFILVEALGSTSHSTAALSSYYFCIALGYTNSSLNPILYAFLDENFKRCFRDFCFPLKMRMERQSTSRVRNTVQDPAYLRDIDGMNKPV
# T1 sequence (P35372 whole entry): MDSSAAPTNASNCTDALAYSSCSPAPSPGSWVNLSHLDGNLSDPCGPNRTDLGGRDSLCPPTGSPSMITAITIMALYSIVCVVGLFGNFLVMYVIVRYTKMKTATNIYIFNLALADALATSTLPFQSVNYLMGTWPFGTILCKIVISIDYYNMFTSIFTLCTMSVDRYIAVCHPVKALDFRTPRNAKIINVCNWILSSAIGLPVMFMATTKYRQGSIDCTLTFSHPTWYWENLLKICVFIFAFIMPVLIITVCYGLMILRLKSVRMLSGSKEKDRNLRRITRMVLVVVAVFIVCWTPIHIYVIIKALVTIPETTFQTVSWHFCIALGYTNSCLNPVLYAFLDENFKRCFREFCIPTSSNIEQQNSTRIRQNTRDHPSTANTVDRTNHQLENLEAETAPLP
structure (smiles),measurement,setting,value
"COC(=O)[C@@H]1C[C@H](NC(=O)c2ccccc2)C(=O)[C@H]2[C@@]1(C)CC[C@H]1C(=O)O[C@H](c3ccoc3)C[C@]21C [Compound 3, reference compound]",Selectivity μ/κ,[1],>3 000
same,EC50,[1]; EC50 ± SEM μ,3 ± 0.4 nM
same,EC50,[2],> 10000 nM
"COC(=O)[C@@H]1C=C(OC(=O)c2ccc(O)cc2)C(=O)[C@H]2[C@@]1(C)CC[C@H]1C(=O)O[C@H](c3ccoc3)C[C@]21C [Table 3 Entry 3, (2S,4aR,6aR,7R,10aR,10bR)-Methyl 2-(furan-3-yl)-9-((4-hydroxybenzoyl)oxy)-6a,10b-dimethyl-4,10-dioxo-2,4,4a,5,6,6a,7,10,10a,10b-decahydro-1H-benzo[f]isochromene-7-carboxylate]",EC50,[1]; EC50,0.83 ± 0.04 nM
same,melting point,,136 to 139 °C
"COC(=O)[C@@H]1C=C(OC(=O)c2cccc(O)c2)C(=O)[C@H]2[C@@]1(C)CC[C@H]1C(=O)O[C@H](c3ccoc3)C[C@]21C [Table 3 Entry 2, (2S,4aR,6aR,7R,10aR,10bR)-Methyl 2-(furan-3-yl)-9-((3-hydroxybenzoyl)oxy)-6a,10b-dimethyl-4,10-dioxo-2,4,4a,5,6,6a,7,10,10a,10bdecahydro-1H-benzo[f]isochromene-7-carboxylate]",EC50,[1]; EC50,1.3 ± 0.3 nM
same,melting point,,124 to 126 °C
"CN1CC[C@]23c4c5ccc(O)c4O[C@H]2[C@@H](O)C=C[C@H]3[C@H]1C5 [Morphine, morphine, reference compound]",motor coordination (rotarod),[3],significant decrease in motor coordination
same,antinociceptive effects over days of daily administration (tolerance),[4],"significant antinociceptive effects on days 1, 3, and 5 but not day 6"
same,antinociceptive effects on day 6 challenge after daily vehicle,[4],antinociceptive effects similar to day 1
same,conditioned place preference,[5]; 5 mg/kg,significant place preference
same,conditioned place preference,[5]; 10 mg/kg,significant place preference
same,ED50,[6],9.86 mg/kg
"COC(=O)[C@@H]1C=C(OC(=O)c2ccccc2)C(=O)[C@H]2[C@@]1(C)CC[C@H]1C(=O)O[C@H](c3ccoc3)C[C@]21C [Compound 5, (2S,4aR,6aR,6aR,10aR,10bR)-Methyl 2-(furan-3-yl)-9-((benzoyl)oxy)-6a,10b-dimethyl-4,10-dioxo-2,4,4a,5,6,6a,7,10,10a,10b-decahydro-1H-benzo[f]isochromene-7-carboxylate]",antinociceptive effects over days of daily administration (tolerance),[4],maintained antinociceptive efficacy from days 1-6
same,antinociceptive effects on day 6 challenge after daily vehicle,[4],antinociceptive effects similar to day 1
same,conditioned place preference,[5]; 5 mg/kg,Neither kurkinorin (5) nor herkinorin (2) were significantly different to vehicle
same,conditioned place preference,"[5]; 10 mg/kg, listed as Kurkinorin",significant decrease in preference compared to morphine; also recorded: not significantly different form vehicle
same,ED50,[6],9.72 mg/kg
same,antinociceptive effects,"[7]; 5 and 10 mg/kg i.p., similar to morphine at 10 mg/kg",significant antinociceptive effects
same,EC50,[2],> 10000 nM
same,activity at the KOR,[2],no activity
"COC(=O)[C@@H]1C=C(OC(=O)c2ccccc2Cl)C(=O)[C@H]2[C@@]1(C)CC[C@H]1C(=O)O[C@H](c3ccoc3)C[C@]21C [Series 2 Entry 5, (2S,4aR,6aR,7R,10aR,10bR)-Methyl 9-((2-chlorobenzoyl)oxy)-2-(furan-3-yl)-6a,10b-dimethyl-4,10-dioxo-2,4,4a,5,6,6a,7,10,10a,10b-decahydro-1H-benzo[f]isochromene-7-carboxylate]",EC50,[1]; Series 2 EC50,290 ± 20 nM
"COC(=O)[C@@H]1C=C(OC(=O)c2cccnc2)C(=O)[C@H]2[C@@]1(C)CC[C@H]1C(=O)O[C@H](c3ccoc3)C[C@]21C [Series 2 Entry 18, (2S,4aR,6aR,7R,10aR,10bR)-2-(Furan-3-yl)-7-(methoxycarbonyl)-6a,10b-dimethyl-4,10-dioxo-2,4,4a,5,6,6a,7,10,10a,10b-decahydro-H-benzo[f]isochromen-9-yl nicotinate]",EC50,[1]; Series 2 EC50,3.3 ± 0.8 nM
"COC(=O)[C@@H]1C[C@H](OC(=O)c2cccc(C)c2)C(=O)[C@H]2[C@@]1(C)CC[C@H]1C(=O)O[C@H](c3ccoc3)C[C@]21C [Series 1 Entry 12, (2S,4aR,6aR,7R,9S,10aS,10bR)-Methyl 2-(furan-3-yl)-6a,10b-dimethyl-9-((3-methylbenzoyl)oxy)-4,10-dioxododecahydro-1H-benzo[f]isochromene-7-carboxylate]",EC50,[1]; Series 1 EC50,1800 ± 300 nM
COC(=O)[C@@H]1C[C@H](OC(=O)c2cccc([N+](=O)[O-])c2)C(=O)[C@H]2[C@@]1(C)CC[C@H]1C(=O)O[C@H](c3ccoc3)C[C@]21C [Series 1 Entry 3],EC50,[1]; Series 1 EC50,3500 ± 200 nM
COC(=O)[C@@H]1C[C@H](OC(=O)c2cccnc2)C(=O)[C@H]2[C@@]1(C)CC[C@H]1C(=O)O[C@H](c3ccoc3)C[C@]21C [Series 1 Entry 18],EC50,[1]; Series 1 EC50,240 ± 20 nM
"COC(=O)[C@@H]1C=C(OC(=O)c2ccc([N+](=O)[O-])cc2)C(=O)[C@H]2[C@@]1(C)CC[C@H]1C(=O)O[C@H](c3ccoc3)C[C@]21C [Series 2 Entry 4, (2S,4aR,6aR,7R,10aR,10bR)-Methyl 2-(furan-3-yl)-6a,10b-dimethyl-9-((4-nitrobenzoyl)oxy)-4,10-dioxo-2,4,4a,5,6,6a,7,10,10a,10b-decahydro-1H-benzo[f]isochromene-7-carboxylate]",EC50,[1]; read-out: Series 2 EC50,31 ± 2 nM
"COC(=O)[C@@H]1C=C(OC(=O)c2cnco2)C(=O)[C@H]2[C@@]1(C)CC[C@H]1C(=O)O[C@H](c3ccoc3)C[C@]21C [Table 3 Entry 10, (2S,4aR,6aR,7R,10aR,10bR)-2-(Furan-3-yl)-7-(methoxycarbonyl)-6a,10b-dimethyl-4,10-dioxo-2,4,4a,5,6,6a,7,10,10a,10b-decahydro-1H-benzo[f]isochromen-9-yl oxazole-5-carboxylate]",EC50,[1]; EC50,> 10000 nM
"COC(=O)[C@@H]1C[C@H](OC(=O)c2ccccc2)C(=O)[C@H]2[C@@]1(C)CC[C@H]1C(=O)O[C@H](c3ccoc3)C[C@]21C [Compound 2, herkinorin, reference compound]",conditioned place preference,[5]; 5 mg/kg,Neither kurkinorin (5) nor herkinorin (2) were significantly different to vehicle
same,antinociceptive effects,"[7]; 1, 5, and 10 mg/kg, i.p., 10 s cutoff",no significant antinociceptive effects
same,Selectivity μ/κ,[1],4.4
same,selectivity for the MOR over KOR,[1],4.4 fold
same,EC50,[1]; EC50 ± SEM μ,39 ± 4 nM
same,EC50,[1]; Series 1 EC50,42 ± 4 nM
same,EC50,[2]; read-out: EC50 ± SEM κ,170 ± 30 nM
"COC(=O)[C@@H]1C[C@H](OC(=O)c2ccc(C)cc2)C(=O)[C@H]2[C@@]1(C)CC[C@H]1C(=O)O[C@H](c3ccoc3)C[C@]21C [Series 1 Entry 13, (2S,4aR,6aR,7R,9S,10aS,10bR)-Methyl 2-(furan-3-yl)-6a,10b-dimethyl-9-((4-methylbenzoyl)oxy)-4,10-dioxododecahydro-1H-benzo[f]isochromene-7-carboxylate]",EC50,[1]; Series 1 EC50,430 ± 10 nM
"COC(=O)[C@@H]1C=C(OC(=O)c2cncnc2)C(=O)[C@H]2[C@@]1(C)CC[C@H]1C(=O)O[C@H](c3ccoc3)C[C@]21C [Table 3 Entry 11, (2S,4aR,6aR,7R,10aR,10bR)-2-(Furan-3-yl)-7-(methoxycarbonyl)-6a,10b-dimethyl-4,10-dioxo-2,4,4a,5,6,6a,7,10,10a,10b-decahydro-1H-benzo[f]isochromen-9-yl pyrimidine-5-carboxylate]",EC50,[1]; EC50,6 ± 1 nM
"COC(=O)[C@@H]1C=C(OC(=O)c2cc3ccccc3o2)C(=O)[C@H]2[C@@]1(C)CC[C@H]1C(=O)O[C@H](c3ccoc3)C[C@]21C [Series 2 Entry 22, (2S,4aR,6aR,7R,10aR,10bR)-Methyl 9-((benzofuran-2-carbonyl)oxy)-2-(furan-3-yl)-6a,10-dimethyl-4,10-dioxo-2,4,4a,5,6,6a,7,10,10a,10bdecahydro-1H-benzo[f]isochromene-7-carboxylate]",EC50,[1]; Series 2 EC50,31 ± 9 nM
"COC(=O)[C@@H]1C[C@H](OC(=O)c2ccncc2)C(=O)[C@H]2[C@@]1(C)CC[C@H]1C(=O)O[C@H](c3ccoc3)C[C@]21C [Series 1 Entry 19, (2S,4aR,6aR,7R,9S,10aS,10bR)-2-(furan-3-yl)-7-(methoxycarbonyl)-6a,10b-dimethyl-4,10-dioxododecahydro-2H-benzo[f]isochromen-9-yl isonicotinate]",EC50,[1]; Series 1 EC50,340 ± 10 nM
"COC(=O)[C@@H]1C=C(OC(=O)c2ccc(F)cc2)C(=O)[C@H]2[C@@]1(C)CC[C@H]1C(=O)O[C@H](c3ccoc3)C[C@]21C [Series 2 Entry 10, (2S,4aR,6aR,7R,10aR,10bR)-Methyl 9-((4-fluorobenzoyl)oxy)-2-(furan-3-yl)-6a,10b-dimethyl-4,10-dioxo-2,4,4a,5,6,6a,7,10,10a,10b-decahydro-1H-benzo[f]isochromene-7-carboxylate]",EC50,[1]; Series 2 EC50,5 ± 1 nM
"COC(=O)[C@@H]1C[C@H](OC(=O)c2cccc(Cl)c2)C(=O)[C@H]2[C@@]1(C)CC[C@H]1C(=O)O[C@H](c3ccoc3)C[C@]21C [Series 1 Entry 6, (2S,4aR,6aR,7R,9S,10aS,10bR)-Methyl 9-((3-chlorobenzoyl)oxy)-2-(furan-3-yl)-6a,10b-dimethyl-4,10-dioxododecahydro-1H-benzo[f]isochromene-7-carboxylate]",EC50,[1]; Series 1 EC50,2400 ± 100 nM
